Publication PMC2797370 (2009)

Biological target: T1, prostaglandin endoperoxide synthase-2 (PGHS-2) (Mus musculus, UniProt Q05769)
T1 sequence (Q05769 18-604): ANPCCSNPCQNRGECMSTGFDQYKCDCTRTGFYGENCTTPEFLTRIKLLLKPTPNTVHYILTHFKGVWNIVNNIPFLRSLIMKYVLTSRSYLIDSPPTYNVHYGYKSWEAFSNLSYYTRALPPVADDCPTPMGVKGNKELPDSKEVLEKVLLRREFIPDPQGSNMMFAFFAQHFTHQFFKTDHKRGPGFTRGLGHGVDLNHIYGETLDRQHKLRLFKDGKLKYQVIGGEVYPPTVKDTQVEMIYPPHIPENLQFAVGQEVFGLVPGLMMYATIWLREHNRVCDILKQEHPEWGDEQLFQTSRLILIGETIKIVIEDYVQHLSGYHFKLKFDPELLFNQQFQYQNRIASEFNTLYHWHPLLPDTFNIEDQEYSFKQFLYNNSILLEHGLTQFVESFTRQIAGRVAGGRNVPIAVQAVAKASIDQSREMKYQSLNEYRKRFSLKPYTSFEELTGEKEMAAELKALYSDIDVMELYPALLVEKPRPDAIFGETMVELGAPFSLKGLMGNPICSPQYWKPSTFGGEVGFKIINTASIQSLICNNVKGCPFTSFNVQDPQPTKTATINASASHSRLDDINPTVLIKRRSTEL
Assay: oxygen uptake assay of purified enzyme
Assay type: biochemical

CCCCC/C=C\C/C=C\C/C=C\C/C=C\CCCC(=O)Nc1cccc(O)c1 [3-HPAA, N-(3-Hydroxyphenyl)eicosa-5,8,11,14-tetraenamide] showed an IC50 of 1600 nM.
